Experimental data as given in patent US20190021380A1 (priority 2014, published 2019).
Where “and” joins values, the source holds several entries; their conditions need not be identical. Equal entries are not always repeated.

Key:
[1] = molecular target: T1, T1R1/T1R3 receptor (Felis catus, UniProt E3UMS2); assay: Example 8: agonist screening of transmembrane compounds on T1R1/T1R3 in HEK293 cells; type: cell-based, cat; conditions: for T1R1/T1R3 agonist: transmembrane compound tested at 0.01, 0.1 and 1 mM, HEK293 cells expressing T1R1/T1R3, calcium dye and/or luminescent reporter; for agonist profile assessment: transmembrane compound alone, in words
Experimental: (§1) HEK293 cells that stably express T1R3 and inducibly express T1R1 were exposed to a transmembrane compound. Activation of the T1R1/T1R3 receptor was detected by a change in intracellular calcium levels using a calcium sensitive fluorescent dye and/or a luminescent reporter system. […] A FLIPR® Tetra or a FlexStation® 3 was used for data capture.
Each transmembrane compound was tested at concentrations of 0.01 mM, 0.1 mM, and 1 mM. […] To generate the dose response curves, the transmembrane compound was tested at concentrations of between 0.0001 mM and 1.0 mM in the presence of GMP and Ala.

[2] = molecular target: T1, T1R1/T1R3 receptor; assay: Example 8: PAM screening of transmembrane compounds with GMP and Ala on T1R1/T1R3 in HEK293 cells; type: cell-based, cat; conditions: for T1R1/T1R3 PAM: compound at 0.01, 0.1, 1 mM in combination with GMP+Ala mixtures (T1-T4), PAM if response to the combination is greater than the sum of the responses to compound alone and to GMP+Ala alone; for PAM profile assessment: in the presence of GMP and Alanine, in words
Text: as §1, with “to” for “to a”, “compound alone or in combination with Ala and GMP to activate the umami receptor.” for “compound.”
Dose response curves were generated for each transmembrane compound at concentrations of 0 (buffer only), 0.01, 0.1 and 1 mM, wherein each of the three concentrations of transmembrane compound was tested in combination with 0.03 mM GMP+100 mM Ala (T1); 0.6 mM GMP+10 mM Ala (T2); 0.1 mM GMP+60 mM Ala (T3) and 0.3 mM GMP+60 mM Ala (T4). The T4 mixture was also tested in a 2-fold dilution series (the T4(X) Concentration). In these experiments, the first test concentration was 2× (2 times) the T4 concentration. The subsequent test concentrations were 2-fold dilutions from that (1×, 0.5× etc.). This dilution series was tested with or without the addition of the test compound at a constant 0.3 mM concentration.
Activation of the umami receptor was also determined in the presence of 1 mM GMP+100 mM Ala to generate a “maximum” umami receptor activation level.

[3] = molecular target: T1, T1R1/T1R3 receptor; assay: cell-based; type: cell-based
Text: (§2) HEK293 cells that stably express T1R3 and inducibly express T1R1 were exposed to transmembrane compounds alone or in combination with one or more amino acids and/or one or more nucleotides to activate the umami receptor. Activation of the T1R1/T1R3 receptor was detected by a change in intracellular calcium levels using a calcium sensitive fluorescent dye. Cells that express T1R3 but not T1R1 were used as a control. A FLIPR® Tetra or a FlexStation® 3 was used for data capture.
(§3) In each experiment, serial dilutions of up to 10 mM of the transmembrane compound were added to the T1R1/T1R3-expressing cells.

[4] = molecular target: T1, T1R1/T1R3 receptor; assay: Example 6: activation of T1R1/T1R3 by transmembrane compounds, conducted as in Example 5; type: cell-based; conditions: T1R1/T1R3 EC50, +0.2 mM IMP
Text: as §2, §3

[5] = molecular target: T1, T1R1/T1R3 receptor; type: cell-based; conditions: threshold in the presence of 0.2 mM IMP; CNBD = Could not be determined
Text: as §2, §3

Compound | T1R1/T1R3 agonist [1] | T1R1/T1R3 PAM [2] | agonist profile assessment [1] | PAM profile assessment [2] | further results
COC(=O)C(NCc1ccccc1)c1ccccc1 (stereo not shown) [Formula 19, Methyl-2-benzylamino-2-phenylacetate] | Yes | Yes | – | – | –
Cl.N[C@@H](Cc1ccccc1)C(=O)OCc1ccccc1 [Formula 20, L-Phenylalanine benzyl ester hydrochloride] | Yes | Yes | – | – | –
N[C@@H](Cc1ccc(O)cc1)C(=O)OCc1ccccc1 [Formula 21, L-Tyrosine benzyl ester] | No | No | – | – | –
O=C(O)[C@H](Cc1ccc(O)cc1)NCc1ccccc1 [Formula 22, N-Benzyl-L-Tyrosine] | No | No | – | – | –
Cc1ccc(CNC(Cc2ccccc2)C(=O)O)cc1 (stereo not shown) [Formula 23, 2-((4-methylbenzyl)amino)-3-phenylpropanoic acid] | No | No | – | – | –
O=C1CC(=O)N(Cc2ccccc2)C(=O)N1Cc1ccccc1 [Formula 24, 1,3-dibenzylpyrimidine-2,4,6(1H,3H,5H)-trione] | Yes | No | – | – | –
Cl.N[C@@H](Cc1ccccc1)C(=O)OCc1ccccc1 [L-Phenylalanine benzyl ester hydrochloride] | – | – | agonist | PAM activity | –
COC(=O)C(NCc1ccccc1)c1ccccc1 (stereo not shown) [Methyl-2-benzylamino-2-phenylacetate] | – | – | agonist | PAM activity | –
CCCC(CCC)NC(=O)c1ccc2c(c1)OCO2 [N-(heptan-4-yl)benzo[d][1,3]dioxole-5-carboxamide] | – | – | agonist | PAM activity | Max resp ΔF/F +IMP (0.2 mM) ([3]; in the presence of 0.2 mM IMP): 1.4725 and 1.393 and 1.473; Max resp % of Ala +IMP (0.2 mM) ([3]; in the presence of 0.2 mM IMP, relative to Ala): 165.8% and 119.6%; Max resp ΔF/F +Alanine (20 mM) ([3]; in the presence of 20 mM alanine): 1.7725 and 1.2; Max resp % of IMP +Alanine (20 mM) ([3]; in the presence of 20 mM alanine, relative to IMP): 118.2% and 142.7%
COC(=O)[C@@H](Cc1ccccc1)NCc1ccccc1.Cl [N-Benzyl-D-Phenylalanine methyl ester hydrochloride] | – | – | agonist | PAM activity | –
COC(=O)[C@H](Cc1ccccc1)NCc1ccccc1 [N-Benzyl-L-phenylalanine methyl ester] | – | – | agonist | PAM activity | EC50 [4]: 20 ± 1 µM; Thres +IMP (0.2 mM) [5]: 0.003 mM
